Assay results as given in patent EP4032543A1, “PEPTIDES FROM THE SEQUENCE OF THE COMPLEMENT FACTOR D FOR MEDICAL USE, ESPECIALLY FOR THE TREATMENT OF EBV-ASSOCIATED DISEASES” (Fraunhofer-Gesellschaft zur Förderung der angewandten …, priority 2021, dated 2022).

System: latently EBV-infected Raji-reporter cells
Assay: Induction of lytic EBV-infection after proviral treatment (expression of ZEBRA)
Type: cell-based
Conditions: EBV-positive Raji-reporter cells, 24 hours induction, related to untreated control; PMA at 20 ng/ml; Figure 1
Method: The relative induction of the EBV lytic cycle in latently EBV-infected Raji-reporter cells was tested using the human peptide mixture comprising the two complement factor D derived peptide sequences SEQ ID No. 3 and SEQ ID No. 4 (CFD+ peptide mixture) in comparison to the known exogenous proviral substance phorbol-12-myristate13-acetate (PMA), each related to the untreated control. The EBV-positive Raji-reporter cells were treated with the human peptide mixture or with the 20 ng/ml PMA. In a control, cells were not treated with a proviral substance. After 24 hours induction the lytic EBV-infection was compared between treated and non-treated cells via expression of the lytic EBV-immediate early protein ZEBRA. […] Without being bound to the theory, it can be assumed that the pure peptides will result in an even better induction.

SMILES: CCCCCCCCCCCCCC(=O)O[C@@H]1[C@@H](C)[C@@]2(O)[C@@H](C=C(CO)C[C@]3(O)C(=O)C(C)=C[C@@H]23)[C@@H]2C(C)(C)[C@]12OC(C)=O [PMA, phorbol-12-myristate13-acetate]
- induction of lytic EBV-infection via expression of the lytic EBV-immediate early protein ZEBRA: resulted in the induction of lytic EBV-infection
